Assay results: patent publication US20250230165A1, “HETEROCYCLIC COMPOUNDS FOR USE IN THE TREATMENT OF CANCER” (ARTIOS PHARMA LIMITED, priority 2021, published 2025)

Biological target: T1, Human Polθ polymerase domain (aa1820-2590) (Homo sapiens, UniProt O75417)
T1 construct: Human Polθ polymerase domain (aa1820-2590) was expressed in E. coli; made in house; host or cells: E. coli
T1 sequence (O75417 1820-2590): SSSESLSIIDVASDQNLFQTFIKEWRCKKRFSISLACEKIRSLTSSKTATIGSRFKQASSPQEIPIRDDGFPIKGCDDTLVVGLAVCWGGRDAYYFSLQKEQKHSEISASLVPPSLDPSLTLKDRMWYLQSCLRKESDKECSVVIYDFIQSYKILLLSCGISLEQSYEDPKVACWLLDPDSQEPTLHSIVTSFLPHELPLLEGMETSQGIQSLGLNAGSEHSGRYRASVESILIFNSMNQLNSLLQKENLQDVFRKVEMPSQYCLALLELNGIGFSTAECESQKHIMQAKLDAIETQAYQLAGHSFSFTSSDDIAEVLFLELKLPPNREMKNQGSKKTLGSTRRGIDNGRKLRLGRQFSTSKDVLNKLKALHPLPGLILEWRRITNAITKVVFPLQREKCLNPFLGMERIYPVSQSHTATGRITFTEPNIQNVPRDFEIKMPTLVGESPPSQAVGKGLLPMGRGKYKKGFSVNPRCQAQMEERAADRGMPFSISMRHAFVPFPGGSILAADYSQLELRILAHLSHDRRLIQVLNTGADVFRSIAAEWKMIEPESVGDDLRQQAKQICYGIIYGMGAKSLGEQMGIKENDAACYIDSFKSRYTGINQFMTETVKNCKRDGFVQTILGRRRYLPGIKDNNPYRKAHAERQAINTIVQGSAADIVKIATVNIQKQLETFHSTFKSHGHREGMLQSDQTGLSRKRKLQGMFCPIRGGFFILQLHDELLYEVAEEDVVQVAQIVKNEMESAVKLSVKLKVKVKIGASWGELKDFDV
Assay: Polθ Polymerase Domain Kinact/KI Assay (PicoGreen)
Assay type: biochemical
Conditions: 0.8 nM Polθ, 100 nM DNA substrate, kobs vs [I] fit for 2-step covalent inhibitor
How it was run: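 PicoGreen fluorescence read-out of primer extension; progress curves per inhibitor concentration fitted for kobs, then kobs vs [I] fitted to a two-step covalent model to give Kinact and KI. Conditions: 0.8 nM enzyme, 100 nM DNA substrate, […].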

Kinact/Kl [M⁻¹ s⁻¹]	SMILES
1.37e+06	C=CC(=O)N1Cc2ncc(CN3C[C@H]4CC(=O)N(c5cc(C(F)(F)F)cc(C)n5)[C@@H]4C(=O)N(C)c4cccc(C)c43)cc2[C@H]1CC#N (racemic) [Example 320a, 2-((R/S)-6-acryloyl-3-(((3aR,11aS)-6,10-dimethyl-1-(6-meth-yl-4-(trifluorometh-yl)pyridin-2-yl)-2,11-dioxo-1,2,3,3a, 4,10,11,11a-octa-hydro-5H-benzo[b]pyrrolo[2,3-f][1,4]diazocin-5-yl)meth-yl)-6,7-dihydro-5H-pyrrolo[3,4-b]pyr-idin-5-yl)acetonitrile]
2.48e+06	C=CC(=O)N1Cc2ncc(CN3C[C@H]4CC(=O)N(c5cc(C(F)(F)F)cc(C)n5)[C@@H]4C(=O)N(C)c4cccc(C)c43)cc2[C@@H]1CC#N (racemic) [Example 320b, 2-((S/R)-6-acryloyl-3-(((3aR,11aS)-6,10-dimethyl-1-(6-meth-yl-4-(trifluorometh-yl)pyridin-2-yl)-2,11-dioxo-1,2,3,3a, 4, 10,11,11a-octa-hydro-5H-benzo[b]pyrrolo[2,3-f][1,4]diazocin-5-yl)meth-yl)-6,7-dihydro-5H-pyrrolo[3,4-b]pyr-idin-5-yl)acetonitrile]
1.57e+06	C=CC(=O)N1Cc2cc(CN3C[C@H]4CC(=O)N(c5cc(C(F)(F)F)cc(C)n5)[C@@H]4C(=O)N(C)c4cccc(C)c43)cnc2[C@@H]1CC#N (racemic) [Example 321a, 2-((S/R)-6-acryloyl-3-(((3aR,11aS)-6,10-dimethyl-1-(6-meth-yl-4-(trifluorometh-yl)pyridin-2-yl)-2,11-dioxo-1,2,3,3a, 4,10,11,11a-octa-hydro-5H-benzo[b]pyrrolo[2,3-f][1,4]diazocin-5-yl)meth-yl)-6,7-dihydro-5H-pyrrolo[3,4-b]pyr-idin-7-yl)acetonitrile]
690000	C=CC(=O)N1Cc2cc(CN3C[C@H]4CC(=O)N(c5cc(C(F)(F)F)cc(C)n5)[C@@H]4C(=O)N(C)c4cccc(C)c43)cnc2[C@H]1CC#N (racemic) [Example 321b, 2-((R/S)-6-acryloyl-3-(((3aR,11aS)-6,10-dimethyl-1-(6-meth-yl-4-(trifluorometh-yl)pyridin-2-yl)-2,11-dioxo-1,2,3,3a, 4,10,11,11a-octa-hydro-5H-benzo[b]pyrrolo[2,3-f][1,4]diazocin-5-yl)meth-yl)-6,7-dihydro-5H-pyrrolo[3,4-b]pyr-idin-7-yl)acetonitrile]
1.56e+06	C=CC(=O)N1Cc2nc(CN3C[C@H]4CC(=O)N(c5cc(C(F)(F)F)cc(C)n5)[C@@H]4C(=O)N(C)c4cccc(C)c43)cn2C[C@H]1C(F)(F)F (racemic) [Example 322a, (3aR,11aS)-5-(((S/R)-7-acryloyl-6-(trifluoromethyl)-5,6,7,8-tetrahydro-imidazo[1,2-a]pyr-azin-2-yl)methyl)-6,10-dimethyl-1-(6-methyl-4-(trifluoro-methyl)pyridin-2-yl)-1,3a,4,5,10,11a-hexahydro-2H-benzo[b]pyrrolo [2,3-f][1,4]diazo-cine-2,11(3H)-dione]
1.13e+06	C=CC(=O)N1Cc2nc(CN3C[C@H]4CC(=O)N(c5cc(C(F)(F)F)cc(C)n5)[C@@H]4C(=O)N(C)c4cccc(C)c43)cn2C[C@@H]1C(F)(F)F (racemic) [Example 322b, (3aR,11aS)-5-(((R/S)-7-acryloyl-6-(trifluoromethyl)-5,6,7,8-tetrahydro-imidazo[1,2-a]pyr-azin-2-yl)methyl)-6,10-dimethyl-1-(6-methyl-4-(trifluoro-methyl)pyridin-2-yl)-1,3a,4,5,10,11a-hexahydro-2H-benzo[b]pyrrolo[2,3-f][1,4]diazocine-2,11(3H)-dione]
640000	C=CC(=O)N1CCOC[C@H]1c1ccc(CN2C[C@H]3CC(=O)N(c4cc(C(F)(F)F)cc(C)n4)[C@@H]3C(=O)N(C)c3cccc(C)c32)cc1 (racemic) [Example 323a, (3aR,11aS)-5-(4-((R/S)-4-acryloyl-morpholin-3-yl)-benzyl)-6,10-di-methyl-1-(6-meth-yl-4-(trifluorometh-yl)pyridin-2-yl)-1,3a,4,5,10,11a-hexahydro-2H-benzo[b]pyrrolo [2,3-f][1,4]diazo-cine-2,11(3H)-dione]

Continued, compound first:

SMILES	Kinact/Kl [M⁻¹ s⁻¹]
Cc1cc(C(F)(F)F)cc(N2C(=O)C[C@@H]3CN(Cc4ccc5c(c4)[C@H](CC#N)N(C(=O)/C=C/CN(C)C)C5)c4c(Cl)cccc4N(C)C(=O)[C@H]32)n1 (racemic) [Example 311b, 2-((S/R)-6-(((3aR,11aS)-6-chloro-10-methyl-1-(6-methyl-4-(trifluoromethyl)pyridin-2-yl)-2,11-dioxo-1,2,3,3a,4,10,11,11a-octahydro-5H-benzo[b]pyrrolo[2,3-f][1,4]diazocin-5-yl)methyl)-2-((E)-4-(dimethylamino)but-2-enoyl)isoindolin-1-yl)acetonitrile]	1.22e+06
C=CC(=O)N1Cc2ccc(CN3C[C@H]4CC(=O)N(c5cc(C(F)(F)F)cc(C)n5)[C@@H]4C(=O)N(C)c4cccc(C)c43)nc2[C@H]1CC#N (racemic) [Example 318a, 2-((R/S)-6-acryloyl-2-(((3aR,11aS)-6,10-dimethyl-1-(6-meth-yl-4-(trifluorometh-yl)pyridin-2-yl)-2,11-dioxo-1,2,3,3a, 4,10,11,11a-octa-hydro-5H-benzo[b]pyrrolo[2,3-f][1,4]diazocin-5-yl)meth-yl)-6,7-dihydro-5H-pyrrolo[3,4-b]pyr-idin-7-yl)acetonitrile]	1.9e+06
C=CC(=O)N1Cc2ccc(CN3C[C@H]4CC(=O)N(c5cc(C(F)(F)F)cc(C)n5)[C@@H]4C(=O)N(C)c4cccc(C)c43)nc2[C@@H]1CC#N (racemic) [Example 318b, 2-((S/R)-6-acryloyl-2-(((3aR,11aS)-6,10-dimethyl-1-(6-meth-yl-4-(trifluorometh-yl)pyridin-2-yl)-2,11-dioxo-1,2,3,3a, 4,10,11,11a-octa-hydro-5H-benzo[b]pyrrolo[2,3-f][1,4]diazocin-5-yl)meth-yl)-6,7-dihydro-5H-pyrrolo[3,4-b]pyr-idin-7-yl)acetonitrile]	1.56e+06
C=CC(=O)N1Cc2nc(CN3C[C@H]4CC(=O)N(c5cc(C(F)(F)F)cc(C)n5)[C@@H]4C(=O)N(C)c4cccc(C)c43)ccc2[C@H]1CC#N (racemic) [Example 319a, 2-((S/R)-6-acryloyl-2-(((3aR,11aS)-6,10-dimethyl-1-(6-meth-yl-4-(trifluorometh-yl)pyridin-2-yl)-2,11-dioxo-1,2,3,3a,4,10,11,11a-octahydro-5H-benzo [b]pyrrolo[2,3-][1,4]diazocin-5-yl)meth-yl)-6,7-dihydro-5H-pyrrolo[3,4-b]pyr-idin-5-yl)acetonitrile]	2.17e+06
C=CC(=O)N1Cc2nc(CN3C[C@H]4CC(=O)N(c5cc(C(F)(F)F)cc(C)n5)[C@@H]4C(=O)N(C)c4cccc(C)c43)ccc2[C@H]1CC#N (racemic) [Example 319b, 2-((R/S)-6-acryloyl-2-(((3aR,11aS)-6,10-dimethyl-1-(6-meth-yl-4-(trifluorometh-yl)pyridin-2-yl)-2,11-dioxo-1,2,3,3a, 4,10,11,11a-octa-hydro-5H-benzo[b]pyrrolo[2,3-f][1,4]diazocin-5-yl)meth-yl)-6,7-dihydro-5H-pyrrolo[3,4-b]pyr-idin-5-yl)acetonitrile]	1.66e+06
